Results reported in ChEMBL document CHEMBL1155283, “Synthesis and anabolic/androgenic evaluation of novel 9alpha-fluorosteroids” (Eur J Med Chem, 2009).
Active and inactive are the calls of the source. No cut-off for these calls is given here.

What was measured:
Type in all cases: functional, organism-based
[1] = system: Rattus norvegicus; assay: Androgenic activity in Wistar rat assessed as weight of prostate at 40 mg/kg of corporal weight, sc after 7 days by animal castration method; design: dose 40 mg/kg; conditions: Prostate gland
[2] = system: Rattus norvegicus; assay: Androgenic activity in Wistar rat assessed as weight of prostate at 20 mg/kg of corporal weight, sc after 7 days by animal castration method; design: dose 20 mg/kg; conditions: Prostate gland
[3] = system: Rattus norvegicus; assay: Androgenic activity in Wistar rat assessed as weight of prostate at 10 mg/kg of corporal weight, sc after 7 days by animal castration method; design: dose 10 mg/kg; conditions: Prostate gland
[4] = system: Rattus norvegicus; assay: Anabolic activity in Wistar rat assessed as weight of levator ani muscle at 20 mg/kg of corporal weight, sc after 7 days by animal castration method; design: dose 20 mg/kg
[5] = system: Rattus norvegicus; assay: Anabolic activity in Wistar rat assessed as weight of levator ani muscle at 10 mg/kg of corporal weight, sc after 7 days by animal castration method; design: dose 10 mg/kg
[6] = system: Rattus norvegicus; assay: Androgenic activity in Wistar rat assessed as weight of seminal vesicle at 40 mg/kg of corporal weight, sc after 7 days by animal castration method; design: dose 40 mg/kg
[7] = system: Rattus norvegicus; assay: Androgenic activity in Wistar rat assessed as weight of seminal vesicle at 20 mg/kg of corporal weight, sc after 7 days by animal castration method; design: dose 20 mg/kg
[8] = system: Rattus norvegicus; assay: Androgenic activity in Wistar rat assessed as weight of seminal vesicle at 10 mg/kg of corporal weight, sc after 7 days by animal castration method; design: dose 10 mg/kg
[9] = system: Rattus norvegicus; assay: Anabolic activity in Wistar rat assessed as weight of levator ani muscle at 40 mg/kg of corporal weight, sc after 7 days by animal castration method; design: dose 40 mg/kg

## CC(=O)O[C@H]1CC[C@@]2(C)[C@@H](CC[C@H]3[C@@H]4CC[C@H](OC(C)=O)[C@@]4(C)C[C@H](O)[C@@]32F)C1
[1]
  Activity: Active
[2]
  Activity: Active

## CCC(=O)O[C@H]1CC[C@H]2[C@@H]3CC[C@H]4C[C@@H](OC(C)=O)CC[C@]4(C)[C@@]3(F)[C@@H](O)C[C@]12C
[2]
  Activity: Active
[3]
  Activity: Active
[4]
  Activity: Active
[5]
  Activity: Active

## CCCCCCC(=O)O[C@H]1CC[C@H]2[C@@H]3CC[C@H]4C[C@@H](O)CC[C@]4(C)[C@@]3(F)[C@@H](O)C[C@]12C
[1]
  Activity: inactive
[6]
  Activity: inactive
[2]
  Activity: inactive
[7]
  Activity: inactive
[3]
  Activity: inactive
[8]
  Activity: inactive

## CC(=O)O[C@H]1CC[C@@]2(C)[C@@H](CC[C@H]3[C@@H]4CCC(=O)[C@@]4(C)C[C@H](O)[C@@]32F)C1
[9]
  Activity: inactive
[1]
  Activity: Active
[6]
  Activity: inactive
[2]
  Activity: Active
[7]
  Activity: inactive
[8]
  Activity: inactive
[4]
  Activity: inactive
[5]
  Activity: inactive

## C[C@]12CC[C@H](O)C[C@@H]1CC[C@H]1[C@@H]3CCC(=O)[C@@]3(C)C[C@H](O)[C@@]12F
[1]
  Activity: inactive
[6]
  Activity: inactive
[2]
  Activity: inactive
[7]
  Activity: inactive
[3]
  Activity: inactive
[8]
  Activity: inactive

## CC(=O)O[C@H]1CC[C@@]2(C)[C@@H](CC[C@H]3[C@@H]4CC[C@H](O)[C@@]4(C)C[C@H](O)[C@@]32F)C1
[9]
  Activity: Active
[8]
  Activity: inactive
[4]
  Activity: Active

## CC(C)C(=O)O[C@H]1CC[C@H]2[C@@H]3CC[C@H]4C[C@@H](O)CC[C@]4(C)[C@@]3(F)[C@@H](O)C[C@]12C
[6]
  Activity: inactive
[2]
  Activity: Active
[7]
  Activity: inactive
[3]
  Activity: Active
[8]
  Activity: inactive
